These results are taken from patent US20080166427A1, “Method for Reducing Gastrointestinal Toxicity Due to the Administration of Tegafur” (Taiho Pharmaceutical Co., Ltd, priority 2004, published 2008).

Series [1] is described as follows: clinical. The series is classed as in vivo, human. Here is the method: The patient's diagnosis were CRC (7), breast (3), gastric (3) and other (4).
A total of 17 patients were entered in this pharmacokinetic study after informed consent.
Blood was sampled during 24 hours. […] Blood samples were taken by venipuncture in heparinized tubes of 9 ml and transported on ice for immediate processing.
Blood samples were centrifuged for 5 min at 4000 rpm and 4° C. The plasma was transferred to 2 eppendorf vials of 2 ml and stored at −20° C.
Analysis for tegafur and cyanuric acid was performed by validated HPLC assays, while the analysis of the other compounds was performed after derivatization by validated gas-chromatography-mass spectrometry methods as described previously [Peters G. J., Noordhuis P., Van Kuilenburg A. B. P., Schornagel J. H., Gall H., Turner S. L., Swart M. S., Voorn D., Van Gennip A. H., Wanders J., Holwerda U., Smid K., Giaccone G., Fumoleau P. and Van Groeningen C. […] Cancer Chemother. Pharmacol., 38: 1-12, 2003.].
The pharmacokinetic parameters for tegafur, 5FU, oxonic acid, cyan uric acid, and CDHP were calculated with the computer program WinNonLin (version 1.5). The data were analyzed using non-compartment modeling. The parameters that could be established were: time point of maximum observed concentration in plasma (Tmax), concentration in plasma corresponding to Tmax (Cmax), terminal half-life (t½), area under the plasma concentration versus time (C-t) curve (AUCall).

The target of series [2] is T1, dihydropyrimidine dehydrogenase (DPD) (Homo sapiens, UniProt Q12882).
T1 sequence (Q12882 4-1025): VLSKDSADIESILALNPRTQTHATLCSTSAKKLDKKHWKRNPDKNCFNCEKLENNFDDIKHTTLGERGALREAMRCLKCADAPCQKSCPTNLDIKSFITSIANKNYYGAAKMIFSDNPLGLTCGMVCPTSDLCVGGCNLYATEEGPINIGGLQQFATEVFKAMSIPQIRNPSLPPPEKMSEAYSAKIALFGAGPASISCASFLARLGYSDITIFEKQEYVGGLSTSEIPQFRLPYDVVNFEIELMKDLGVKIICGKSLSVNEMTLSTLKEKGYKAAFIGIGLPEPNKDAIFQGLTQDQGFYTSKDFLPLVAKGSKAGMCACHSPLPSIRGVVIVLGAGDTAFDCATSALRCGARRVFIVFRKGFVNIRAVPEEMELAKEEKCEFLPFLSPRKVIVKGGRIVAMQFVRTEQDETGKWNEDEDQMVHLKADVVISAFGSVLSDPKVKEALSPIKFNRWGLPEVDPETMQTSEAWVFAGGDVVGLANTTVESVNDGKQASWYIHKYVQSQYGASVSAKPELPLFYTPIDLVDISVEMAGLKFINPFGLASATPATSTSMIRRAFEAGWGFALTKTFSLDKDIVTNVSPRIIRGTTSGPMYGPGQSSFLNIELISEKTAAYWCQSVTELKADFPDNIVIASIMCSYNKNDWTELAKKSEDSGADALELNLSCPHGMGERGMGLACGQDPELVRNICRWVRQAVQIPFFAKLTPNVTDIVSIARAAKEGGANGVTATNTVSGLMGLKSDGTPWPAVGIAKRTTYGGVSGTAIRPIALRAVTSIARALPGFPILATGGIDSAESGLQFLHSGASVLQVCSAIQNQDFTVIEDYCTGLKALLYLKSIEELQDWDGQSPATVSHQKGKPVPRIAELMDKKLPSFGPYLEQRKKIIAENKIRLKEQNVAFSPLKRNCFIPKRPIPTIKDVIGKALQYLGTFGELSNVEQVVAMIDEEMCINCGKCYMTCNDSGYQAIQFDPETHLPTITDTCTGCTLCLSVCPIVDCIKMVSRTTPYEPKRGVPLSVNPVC
Nature of the series: Inhibition of dihydropyrimidine dehydrogenase. The series is classed as biochemical. The conditions noted are these: vs uracil. The text has this: It is gradually converted to 5-FU in vivo. • CDHP inhibits the catabolism of 5-FU by reversibly inhibiting the enzyme of dihydropyrimidine dehydrogenase (DPD). […] CDHP helps maintain effective blood and tumor concentrations of 5-FU for a prolonged period thus potentially achieving a similar therapeutic effect as protracted infusion of 5-FU. • Oxo blocks phosphorylation of 5-FU by orotate phosphoribosyltransferase (OPRT) in the gastrointestinal tract. […] Oxo is acid labile and thus its bioavailability is affected by food intake.

Series [3] has as its system advanced gastric cancer. The conditions noted are these: in vivo.
Where [4] appears, read: human, in vivo, po, 35 mg/m2, AUCall.
The mark [5] stands for this setting: human, in vivo, po, 35 mg/m2, Cmax.
[6] abbreviates: human, in vivo, po, 35 mg/m2, t½.
Where [7] appears, read: human, in vivo, po, 35 mg/m2, Tmax.
Where [8] appears, read: comparison fasting vs feeding group, S-1 35 mg/m^2.

For the compound `O=c1[nH]c(=O)n(C2CCCO2)cc1F` (racemic) [FT, 5-Fluoro-1-[(RS)-tetrahydrofuran-2-yl]pyrimidine-2,4-(1H,3H)-dione, reference compound], in series [1] (human, in vivo, po, 35 mg/m2), the Tmax worked out at 0.6 h. In series [1] (setting [4]), this compound displayed an AUC of 15700 ng·h/mL. In addition, in series [1] (setting [5]), the Cmax stood at 2370 ng/mL. Moreover, in series [1] (setting [6]), the half-life is 516 min. In series [1] (in vivo), the “Tmax, without breakfast vs after breakfast” value was “earlier without breakfast” and the “t½, fasting vs feeding group” value is on record as “no significant difference”.

`O=c1[nH]cc(F)c(=O)[nH]1` [5-FU, 5-fluorouracil, reference compound] came in with an AUC in series [1] (setting [4]) of 1100 ng·h/mL. In series [1] (setting [5]), the Cmax turned out to be 210 ng/mL. Moreover, the Tmax in series [1] (setting [7]) amounted to 1.8 h. Also, in series [1] (setting [6]), the half-life is 132 min. In series [1] (in vivo), the “Tmax, without breakfast vs after breakfast” value is recorded as “reached earlier without breakfast” and the “t½, fasting vs feeding group” value is “no significant difference”.

For the compound `O=c1[nH]c(=O)[nH]c(=O)[nH]1` [CA, cyanuric acid], the “AUCall, fasting vs feeding group” value in series [1] (setting [8]) is on record as “higher values in the feeding group as compared to the fasting group”. For the same compound, the “Cmax, fasting vs feeding group” value in series [1] (setting [8]) is “not significantly different”. Also, in series [1] (setting [8]), the “Tmax, without breakfast vs after breakfast” value is listed as “faster Tmax without breakfast”. The “t½, fasting vs feeding group” value in series [1] (setting [8]) is on record as “not significantly different”. In addition, the AUC was 517 ng·h/mL in series [1] (human, in vivo, po, 35 mg/m2, plasma, mean, S-1 35 mg/m^2 oral, fasted patients, read-out: AUCall) and 1220 ng·h/mL in series [1] (human, in vivo, po, 35 mg/m2, plasma, mean, S-1 35 mg/m^2 oral, fed patients, read-out: AUCall). For the same compound, the Cmax was 118 ng/mL in series [1] (human, in vivo, po, 35 mg/m2, plasma, mean, S-1 35 mg/m^2 oral, fasted patients, read-out: Cmax) and 160 ng/mL in series [1] (human, in vivo, po, 35 mg/m2, plasma, mean, S-1 35 mg/m^2 oral, fed patients, read-out: Cmax). Further, the Tmax in series [1] (human, in vivo, po, 35 mg/m2, plasma, mean, S-1 35 mg/m^2 oral, fasted patients, read-out: Tmax) came to 1.3 h; in series [1] (human, in vivo, po, 35 mg/m2, plasma, mean, S-1 35 mg/m^2 oral, fed patients, read-out: Tmax) it was 3.5 h. Besides, the half-life in series [1] (human, in vivo, po, 35 mg/m2, plasma, mean, S-1 35 mg/m^2 oral, fasted patients, read-out: t½ (converted)) is 318 min; in series [1] (human, in vivo, po, 35 mg/m2, plasma, mean, S-1 35 mg/m^2 oral, fed patients, read-out: t½ (converted)), 402 min.

As to `Oc1cc(O)c(Cl)cn1` [CDHP, 5-chloro-2,4-dihydroxypyridine], the AUC in series [1] (setting [4]) came out at 1920 ng·h/mL. In series [1] (setting [5]), this compound came in with a Cmax of 464 ng/mL. Moreover, in series [1] (setting [7]), the Tmax worked out at 1.1 h. For the same compound, the half-life in series [1] (setting [6]) is 270 min. In addition, in series [1] (in vivo), the “Tmax, without breakfast vs after breakfast” value was “reached earlier without breakfast” and the “t½, fasting vs feeding group” value is “no significant difference”. Besides, the “potency of DPD inhibition relative to uracil” value in series [2] was 180 fold.

For the compound `O=C(O)c1nc(=O)[nH]c(=O)[nH]1` [Oxo, potassium oxonate], the “effect of food on bioavailability” value in series [1] (human, in vivo, po) was “profound effect”. In series [1] (human, in vivo, po, 35 mg/m2), this compound returned an AUCall of 808.7 ng·h/mL and a Cmax of 158.1 ng/mL. The Tmax in series [1] (setting [7]) worked out at 1.6 h. Also, the half-life in series [1] (setting [6]) is 234 min. In series [1] (in vivo), the “Tmax, without breakfast vs after breakfast” value was “significantly faster without breakfast” and the “t½, fasting vs feeding group” value is “not significantly different”.

Take `N.N.[Cl][Pt][Cl]` [cisplatin]: in series [3], the “recommended dose for the phase II portion” value came to 60 mg/m^2.
